# Laboratory results from patent US4515722A, “Phosphatidyl inositol analogs useful as anti-inflammatory/analgesic agents” (Merck & Co., Inc., priority 1982, dated 1985).
# What was measured:
# [1] = system: Phosphatidyl inositol-specific phospholipase C; assay: Phosphatidyl inositol-specific phospholipase C assay with sonicated human platelets; type: biochemical
# Protocol: A. Protocol--Phosphatidyl inositol-specific phospholipase C assays. The assays were performed as follows: A mixture of PI (Sigma) and (^3 H-inositol)-PI in CHCl3 are blown to dryness under N2 and sonicated into a buffer containing DOC and CaCl2 so that the final concentrations in each 200 λ assay are:
# 0.5 mg/ml DOC containing an appropriate amount of an active compound
# in 50 mM Hepes, 100 mM NaCl, 0.5 mg/ml BSA pH 7.
# An aliquot of sonicated human platelets, 5×10^9 /ml, is added; the reaction is stopped after 10 minutes with a chloroform/methanol/H2 O solution and the upper water phase is counted to detect water-soluble inositol counts. The pH was checked during each assay using pH paper to verify that none of the compounds affected this parameter.
# phospholipase C = conditions: background statement; cited from earlier work
# [2] = Table II, Concentration 0.20 mM
smiles,measurement,setting,value
"CCCCCCCCCC(=O)OC(CCP(=O)(O)OC1C(O)C(O)C(O)C(O)C1O)COC(=O)Cc1ccc(-c2ccccc2)cc1 (stereo not shown) [.0.-.0.CH2 CO, 3-Decanoyloxy-4-(p-diphenylacetyloxy)-butyl-1-phosphonyl-myo-inositol]",% Inhibition,"[1]; Table I, Conc. 0.5 mM",61%
same,% Inhibition,"[1]; Table I, Conc. 1.0 mM",75%
c1ccc2c(c1)Nc1ccccc1S2 [phenothiazine],inhibition of phospholipase C,phospholipase C,inhibited
"CCCCCCCCCC(=O)OCC(CCP(=O)(O)OC1C(O)C(O)C(O)C(O)C1O)OC(=O)CCCCCCCCC (stereo not shown) [n-C9 H19 CO, 3,4-Didecanoyloxybutyl-1-phosphonyl-myo-inositol]",% Inhibition,"[1]; Table I, Conc. 1.0 mM",68%
CCCCCCCCCCCCP(=O)(O)O[C@@H]1[C@H](O)[C@H](O)[C@@H](O)[C@H](O)[C@H]1O (relative stereo) [1-O--(dodecylphosphonyl)-myo-inositol],% Inhibition,[1]; [2],51%
same,% Inhibition,"[1]; Table II, Concentration 2.0 mM",82%
CCCCCCCCCCCCCCCCCCP(=O)(O)O[C@H]1[C@H](O)[C@@H](O)[C@H](O)[C@@H](O)[C@]1(O)CO (relative stereo) [DL-2-C--hydroxymethyl-1-O--octadecanephosphonyl-myo-inositol],% Inhibition,"[1]; Table II, Concentration 0.115 mM",51%
same,% Inhibition,"[1]; Table II, Concentration 1.15 mM",89%
CCCCCCCCCCCCCCCCCCP(=O)(O)O[C@@H]1[C@H](O)[C@H](O)[C@@H](O)[C@H](O)[C@H]1O (relative stereo) [1-O--(octadecylphosphonyl)-myo-inositol],% Inhibition,"[1]; Table II, Concentration 0.105 mM",12%
same,% Inhibition,"[1]; Table II, Concentration 1.05 mM",66%
CCCCCCCCCCCCCCCCCCP(=O)(O)O[C@H]1[C@H](O)[C@@H](O)[C@H](O)[C@@H](O)[C@H]1OC (relative stereo) [DL-2-O--methyl-1-O--(octadecylphosphonyl)-myo-inositol],% Inhibition,"[1]; Table II, Concentration 0.122 mM",53%
same,% Inhibition,"[1]; Table II, Concentration 1.22 mM",83%
CCCCCCCCCCCCCCCCCCP(=O)(O)OC1C(O)C(O)C(O)C(O)C1O (stereo not shown) [5-O--(octadecylphosphonyl)-myo-inositol],% Inhibition,"[1]; Table II, Concentration 0.050 mM",27%
same,% Inhibition,[1]; [2],60%
same,% Inhibition,"[1]; Table II, Concentration 1.00 mM",81%
CCCCCCCC(=O)OCC(CCP(=O)(OC)OC1C(O)C(O)C(O)C(O)C1O)OC(=O)CCCCCCC (stereo not shown) [(M) (M) CH3],% Inhibition,"[1]; Table I, Conc. 0.5 mM",50%
same,% Inhibition,"[1]; Table I, Conc. 1.0 mM",72%
"CCCCCCCCCCCCP(=O)(O)O[C@H]1[C@H](O)[C@@H](O)[C@H](OP(=O)(O)CCCCCCCCCCCC)[C@@H](O)[C@H]1O (relative stereo) [Example 20, 1,4-di-O-(dodecylphosphonyl)myo-inositol]",% Inhibition,"[1]; Table II, Concentration 0.043 mM",20%
same,% Inhibition,"[1]; Table II, Concentration 0.432 mM",64%
"CCCCCCCCCCCCCCCCCCP(=O)(O)O[C@H]1[C@H](O)[C@@H](O)[C@H](OP(=O)(O)CCCCCCCCCCCCCCCCCC)[C@@H](O)[C@H]1O (relative stereo) [1,4-di(octadecylphosphonyl)-myo-inositol]",% Inhibition,"[1]; Table II, Concentration 0.033 mM",18%
same,% Inhibition,"[1]; Table II, Concentration 0.33 mM",37%
"CCCCCCCC(=O)OCC(CCP(=O)(O)OC1C(O)C(O)C(O)C(O)C1O)OC(=O)CCCCCCC (stereo not shown) [n-C7 H15 CO, 3,4-Dioctanoyloxybutyl-1-phosphonyl-myo-inositol]",% Inhibition,"[1]; Table I, Conc. 1.0 mM",64%
CCCCCCCCCC(=O)OC(CCP(=O)(O)OC1C(O)C(O)C(O)C(O)C1O)COC(=O)CCc1ccc(Oc2ccccc2)cc1 (stereo not shown) [.0.O.0.CH2 CH2 CO],% Inhibition,"[1]; Table I, Conc. 0.1 mM",47%
same,% Inhibition,"[1]; Table I, Conc. 0.5 mM",66%
same,% Inhibition,"[1]; Table I, Conc. 1.0 mM",76%
"CCCCCCCCCCCCCCCC(=O)OCC(CCP(=O)(O)OC1C(O)C(O)C(O)C(O)C1O)OC(=O)CCCCCCCCCCCCCCC (stereo not shown) [n-C15 H31 CO, 3,4-Dipalmitoyloxybutyl-1-phosphonyl-myo-inositol]",% Inhibition,"[1]; Table I, Conc. 0.05 mM",37%
same,% Inhibition,"[1]; Table I, Conc. 0.5 mM",82%
same,% Inhibition,"[1]; Table I, Conc. 1.0 mM",84%
